From PubChem BioAssay (NCI)
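Assay format: 96-well plates, 48-hour exposure. GI50 = concentration required for 50% inhibition of growth. TGI is the concentration that stops growth completely.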

Assays:
Experiment in all cases: NCI-60 cell line screen, 48 h
A498 renal = system: A498 renal
A549 NSCLC = system: A549 NSCLC
ACHN renal = system: ACHN renal
BT-549 breast = system: BT-549 breast
CAKI-1 renal = system: CAKI-1 renal
CCRF-CEM leukemia = system: CCRF-CEM leukemia
COLO 205 colon = system: COLO 205 colon
DU-145 prostate = system: DU-145 prostate
EKVX NSCLC = system: EKVX NSCLC
HCC-2998 colon = system: HCC-2998 colon
HCT-116 colon = system: HCT-116 colon
HCT-15 colon = system: HCT-15 colon
HL-60(TB) leukemia = system: HL-60(TB) leukemia
HOP-62 NSCLC = system: HOP-62 NSCLC
HOP-92 NSCLC = system: HOP-92 NSCLC
HS 578T breast = system: HS 578T breast
HT29 colon = system: HT29 colon
IGROV1 ovarian = system: IGROV1 ovarian
K-562 leukemia = system: K-562 leukemia
KM12 colon = system: KM12 colon
LOX IMVI melanoma = system: LOX IMVI melanoma
M14 melanoma = system: M14 melanoma
MALME-3M melanoma = system: MALME-3M melanoma
MCF7 breast = system: MCF7 breast
MDA-MB-231 breast = system: MDA-MB-231 breast
MDA-MB-435 = system: MDA-MB-435
MOLT-4 leukemia = system: MOLT-4 leukemia
NCI-H226 lung = system: NCI-H226 lung
NCI-H23 lung = system: NCI-H23 lung
NCI-H460 lung = system: NCI-H460 lung
NCI-H522 lung = system: NCI-H522 lung
NCI/ADR-RES ovarian = system: NCI/ADR-RES ovarian
OVCAR-4 ovarian = system: OVCAR-4 ovarian
OVCAR-5 ovarian = system: OVCAR-5 ovarian
OVCAR-8 ovarian = system: OVCAR-8 ovarian
PC-3 prostate = system: PC-3 prostate
RPMI-8226 leukemia = system: RPMI-8226 leukemia
RXF 393 renal = system: RXF 393 renal
SF-268 CNS = system: SF-268 CNS
SF-295 CNS = system: SF-295 CNS
SF-539 CNS = system: SF-539 CNS
SK-MEL-28 melanoma = system: SK-MEL-28 melanoma
SK-MEL-5 melanoma = system: SK-MEL-5 melanoma
SK-OV-3 ovarian = system: SK-OV-3 ovarian
SN12C renal = system: SN12C renal
SNB-19 CNS = system: SNB-19 CNS
SNB-75 CNS = system: SNB-75 CNS
SR leukemia = system: SR leukemia
SW-620 colon = system: SW-620 colon
T-47D breast = system: T-47D breast
TK-10 renal = system: TK-10 renal
U251 CNS = system: U251 CNS
UACC-257 melanoma = system: UACC-257 melanoma
UACC-62 melanoma = system: UACC-62 melanoma
UO-31 renal = system: UO-31 renal

CN(C)c1ccc(-c2cc(-c3c[nH]c4ccccc34)nc(N)c2C#N)cc1
GI50 (A498 renal): 1780 nM | TGI (A498 renal): 4.66 µM | GI50 (A549 NSCLC): 1920 nM | TGI (A549 NSCLC): 7.09 µM | GI50 (ACHN renal): 2790 nM | TGI (ACHN renal): 23.4 µM | GI50 (BT-549 breast): 2220 nM | TGI (BT-549 breast): 7.31 µM | GI50 (CAKI-1 renal): 1670 nM | TGI (CAKI-1 renal): 7.21 µM | GI50 (CCRF-CEM leukemia): 1540 nM | TGI (CCRF-CEM leukemia): 36.4 µM | GI50 (COLO 205 colon): 2110 nM | TGI (COLO 205 colon): 6.03 µM | GI50 (DU-145 prostate): 3.45 µM | TGI (DU-145 prostate): 21 µM | GI50 (EKVX NSCLC): 3.38 µM | TGI (EKVX NSCLC): 27.2 µM | GI50 (HCC-2998 colon): 2150 nM | TGI (HCC-2998 colon): 10.5 µM | GI50 (HCT-116 colon): 1600 nM | TGI (HCT-116 colon): 4.45 µM | GI50 (HCT-15 colon): 485 nM | TGI (HCT-15 colon): 10.4 µM | GI50 (HL-60(TB) leukemia): 1790 nM | TGI (HL-60(TB) leukemia): 6.03 µM | GI50 (HOP-62 NSCLC): 1830 nM | TGI (HOP-62 NSCLC): 6.96 µM | GI50 (HOP-92 NSCLC): 2140 nM | TGI (HOP-92 NSCLC): 5.12 µM | GI50 (HS 578T breast): 2080 nM | TGI (HS 578T breast): 6.71 µM | GI50 (HT29 colon): 1720 nM | TGI (HT29 colon): 6.43 µM | GI50 (IGROV1 ovarian): 2350 nM | TGI (IGROV1 ovarian): 17.6 µM | GI50 (K-562 leukemia): 653 nM | TGI (K-562 leukemia): > 100 µM | GI50 (KM12 colon): 1850 nM | TGI (KM12 colon): 8.72 µM | GI50 (LOX IMVI melanoma): 1560 nM | TGI (LOX IMVI melanoma): 3.58 µM | GI50 (M14 melanoma): 1700 nM | TGI (M14 melanoma): 4.35 µM | GI50 (MALME-3M melanoma): 1720 nM | TGI (MALME-3M melanoma): 4.6 µM | GI50 (MCF7 breast): 1510 nM | TGI (MCF7 breast): 10.4 µM | GI50 (MDA-MB-231 breast): 2160 nM | TGI (MDA-MB-231 breast): 10.6 µM | GI50 (MDA-MB-435): 466 nM | TGI (MDA-MB-435): 10.1 µM | GI50 (MOLT-4 leukemia): 1890 nM | TGI (MOLT-4 leukemia): 14.1 µM | GI50 (NCI-H226 lung): 4.23 µM | TGI (NCI-H226 lung): 27 µM | GI50 (NCI-H23 lung): 3.13 µM | TGI (NCI-H23 lung): 15.7 µM | GI50 (NCI-H460 lung): 1060 nM | TGI (NCI-H460 lung): 3.5 µM | GI50 (NCI-H522 lung): 446 nM | TGI (NCI-H522 lung): 2160 nM | GI50 (NCI/ADR-RES ovarian): 1820 nM | TGI (NCI/ADR-RES ovarian): > 100 µM | GI50 (OVCAR-4 ovarian): 4.78 µM | TGI (OVCAR-4 ovarian): 31.6 µM | GI50 (OVCAR-5 ovarian): 3.17 µM | TGI (OVCAR-5 ovarian): 19.1 µM | GI50 (OVCAR-8 ovarian): 2780 nM | TGI (OVCAR-8 ovarian): 10.7 µM | GI50 (PC-3 prostate): 2790 nM | TGI (PC-3 prostate): 15.6 µM | GI50 (RPMI-8226 leukemia): 1950 nM | TGI (RPMI-8226 leukemia): 4.89 µM | GI50 (RXF 393 renal): 1300 nM | TGI (RXF 393 renal): 3.13 µM | GI50 (SF-268 CNS): 3.89 µM | TGI (SF-268 CNS): 31.9 µM | GI50 (SF-295 CNS): 1860 nM | TGI (SF-295 CNS): 4.14 µM | GI50 (SF-539 CNS): 1330 nM | TGI (SF-539 CNS): 3.05 µM | GI50 (SK-MEL-28 melanoma): 1780 nM | TGI (SK-MEL-28 melanoma): 4.6 µM | GI50 (SK-MEL-5 melanoma): 1840 nM | TGI (SK-MEL-5 melanoma): 3.6 µM | GI50 (SK-OV-3 ovarian): 2050 nM | TGI (SK-OV-3 ovarian): 4.88 µM | GI50 (SN12C renal): 2870 nM | TGI (SN12C renal): 10.8 µM | GI50 (SNB-19 CNS): 2960 nM | TGI (SNB-19 CNS): > 100 µM | GI50 (SNB-75 CNS): 1840 nM | TGI (SNB-75 CNS): 8.96 µM | GI50 (SR leukemia): 419 nM | TGI (SR leukemia): 4.21 µM | GI50 (SW-620 colon): 2160 nM | TGI (SW-620 colon): 11.3 µM | GI50 (T-47D breast): 2320 nM | TGI (T-47D breast): 7.83 µM | GI50 (TK-10 renal): 4.1 µM | TGI (TK-10 renal): 39.8 µM | GI50 (U251 CNS): 1530 nM | TGI (U251 CNS): 4.21 µM | GI50 (UACC-257 melanoma): 1890 nM | TGI (UACC-257 melanoma): 4.74 µM | GI50 (UACC-62 melanoma): 2050 nM | TGI (UACC-62 melanoma): 7.27 µM | GI50 (UO-31 renal): 1880 nM | TGI (UO-31 renal): 6.37 µM
